Results from article PMC3394403 (2011).

Target: P-glycoprotein (P-gp, ABCB1, MDR1) (Homo sapiens, UniProt P08183)
Assay: inhibition of […]-IAAP photoaffinity labeling of P-gp in crude membranes
Assay type: binding

P-glycoprotein (P-gp, ABCB1, MDR1), sequence (P08183 whole entry): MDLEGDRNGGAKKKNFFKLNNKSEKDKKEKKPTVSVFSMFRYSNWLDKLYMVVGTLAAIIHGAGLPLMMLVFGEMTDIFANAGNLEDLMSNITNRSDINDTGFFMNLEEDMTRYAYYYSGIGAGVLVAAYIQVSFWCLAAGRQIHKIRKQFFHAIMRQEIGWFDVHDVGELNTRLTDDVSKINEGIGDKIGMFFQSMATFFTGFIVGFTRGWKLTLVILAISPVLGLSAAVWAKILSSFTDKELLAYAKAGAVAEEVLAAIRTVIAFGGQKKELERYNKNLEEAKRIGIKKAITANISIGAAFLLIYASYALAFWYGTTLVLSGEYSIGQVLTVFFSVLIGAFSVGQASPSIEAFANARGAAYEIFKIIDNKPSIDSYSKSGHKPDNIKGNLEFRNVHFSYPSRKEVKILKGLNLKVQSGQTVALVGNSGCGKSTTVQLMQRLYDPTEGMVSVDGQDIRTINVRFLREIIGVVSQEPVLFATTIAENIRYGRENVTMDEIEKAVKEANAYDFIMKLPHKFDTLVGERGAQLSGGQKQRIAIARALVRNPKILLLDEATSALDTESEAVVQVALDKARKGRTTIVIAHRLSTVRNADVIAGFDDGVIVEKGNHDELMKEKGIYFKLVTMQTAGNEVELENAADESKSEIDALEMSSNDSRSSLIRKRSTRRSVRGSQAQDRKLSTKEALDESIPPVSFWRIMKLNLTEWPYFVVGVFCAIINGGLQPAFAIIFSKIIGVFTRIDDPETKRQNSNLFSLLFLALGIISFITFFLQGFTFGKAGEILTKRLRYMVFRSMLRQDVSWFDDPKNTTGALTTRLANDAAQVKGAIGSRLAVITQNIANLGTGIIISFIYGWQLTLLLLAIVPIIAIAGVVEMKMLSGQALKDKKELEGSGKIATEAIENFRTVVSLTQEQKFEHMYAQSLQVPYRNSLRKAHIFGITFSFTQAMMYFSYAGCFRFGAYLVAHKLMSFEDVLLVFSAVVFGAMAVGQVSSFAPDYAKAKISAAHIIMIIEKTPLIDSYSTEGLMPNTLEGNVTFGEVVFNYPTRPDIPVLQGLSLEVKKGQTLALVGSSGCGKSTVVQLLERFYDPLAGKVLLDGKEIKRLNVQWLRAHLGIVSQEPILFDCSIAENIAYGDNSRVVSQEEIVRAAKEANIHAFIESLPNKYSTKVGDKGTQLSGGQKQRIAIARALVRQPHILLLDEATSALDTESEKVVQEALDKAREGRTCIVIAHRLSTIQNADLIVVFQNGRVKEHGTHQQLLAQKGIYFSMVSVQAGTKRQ

Structure (SMILES): C=C(C)/C=C/C[C@@H](C)[C@H]1CC[C@@]2(C)[C@@H]3[C@@H](O)C=C4[C@@H](CC[C@H](O)C4(C)C)[C@]3(C=O)CC[C@]12C [kuguacin J]
- IC50: 8.3 ± 5.4 µM
